# Experimental data as given in ChEMBL document CHEMBL2073901, “Enhancement of doxorubicin activity in multidrug-resistant cells by mefloquine” (Methods Find Exp Clin Pharmacol, 2000).
# How the values were obtained:
# [1] = target: T1, ATP-dependent translocase ABCB1 (Homo sapiens, UniProt P08183); assay: TP_TRANSPORTER: inhibition of Azidopine photoaffinity labelling (Azidopine: 0.1 uM, Mefloquine: 10 uM) in membranes from K562/DOX cells; assay type: functional, cell membranes, Membrane; details: k562/adr
# [2] = target: T1, ATP-dependent translocase ABCB1; assay: TP_TRANSPORTER: increase in Rhodamine 123 intracellular accumulation (R123: 10 uM, Mefloquine: 10 uM) in K562/DOX cells; assay type: functional, cell-based; details: k562/adr
# [3] = target: T1, ATP-dependent translocase ABCB1; assay: TP_TRANSPORTER: intracellular accumulation in K562 and K562/DXR cells; assay type: functional, cell-based
# T1 sequence (P08183 whole entry): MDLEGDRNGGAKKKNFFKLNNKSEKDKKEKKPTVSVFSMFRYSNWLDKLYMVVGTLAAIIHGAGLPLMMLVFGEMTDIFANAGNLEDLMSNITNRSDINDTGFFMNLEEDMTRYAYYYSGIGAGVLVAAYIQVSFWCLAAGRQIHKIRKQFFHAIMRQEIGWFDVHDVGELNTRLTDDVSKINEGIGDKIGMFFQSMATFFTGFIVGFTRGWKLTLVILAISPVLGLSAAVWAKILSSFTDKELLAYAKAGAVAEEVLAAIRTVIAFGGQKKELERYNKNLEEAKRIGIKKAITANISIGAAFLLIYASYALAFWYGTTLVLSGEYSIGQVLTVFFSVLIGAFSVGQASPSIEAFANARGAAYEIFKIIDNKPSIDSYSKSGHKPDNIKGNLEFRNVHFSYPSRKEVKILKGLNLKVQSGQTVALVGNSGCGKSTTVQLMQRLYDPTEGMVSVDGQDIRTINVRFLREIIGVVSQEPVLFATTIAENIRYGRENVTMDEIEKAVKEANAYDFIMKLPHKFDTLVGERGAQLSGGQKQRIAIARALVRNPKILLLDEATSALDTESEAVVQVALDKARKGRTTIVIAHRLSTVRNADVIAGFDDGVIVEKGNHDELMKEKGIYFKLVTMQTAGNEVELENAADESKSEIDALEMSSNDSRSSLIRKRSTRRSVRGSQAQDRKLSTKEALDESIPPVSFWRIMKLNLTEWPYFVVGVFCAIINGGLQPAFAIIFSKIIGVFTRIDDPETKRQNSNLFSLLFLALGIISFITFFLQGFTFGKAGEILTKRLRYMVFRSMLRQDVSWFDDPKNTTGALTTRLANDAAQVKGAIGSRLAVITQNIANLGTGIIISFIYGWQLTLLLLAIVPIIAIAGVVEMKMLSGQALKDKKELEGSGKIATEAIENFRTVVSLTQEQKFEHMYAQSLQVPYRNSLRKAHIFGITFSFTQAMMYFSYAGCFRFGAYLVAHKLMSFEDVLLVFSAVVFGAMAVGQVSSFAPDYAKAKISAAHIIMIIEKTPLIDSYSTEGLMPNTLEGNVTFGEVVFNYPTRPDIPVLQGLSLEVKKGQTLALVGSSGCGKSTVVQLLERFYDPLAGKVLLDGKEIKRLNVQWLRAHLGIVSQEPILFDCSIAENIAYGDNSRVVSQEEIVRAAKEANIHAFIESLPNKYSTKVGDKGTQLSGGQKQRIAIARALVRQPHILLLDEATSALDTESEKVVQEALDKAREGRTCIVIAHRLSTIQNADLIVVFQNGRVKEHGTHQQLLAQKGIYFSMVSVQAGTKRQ
Activity [1],Activity [2],Activity [3],SMILES
inhibitor [+],inhibitor [+],,OC(c1cc(C(F)(F)F)nc2c(C(F)(F)F)cccc12)C1CCCCN1 (stereo not drawn) [MEFLOQUINE]
,,substrate [+],COC(=O)c1ccccc1-c1c2ccc(=N)cc-2oc2cc(N)ccc12.Cl [RHODAMINE123]
